Key:
[1] = system: Escherichia coli serotype O157:H7 (ATCC 700728); assay: Bioscreen growth rate in brain heart infusion broth (synergy study); assay type: cell-based
Experimental: (§1) The following cultures were used in a study: Escherichia coli (ATCC 8739), Escherichia coli serotype O157:H7 (ATCC 700728), Salmonella typhimurium (ATCC 13311) and Salmonella entiritidis (ATCC 13076). All cultures were transferred daily in screw-capped tubes containing 10 ml brain heart infusion broth. Cultures were incubated at 30° C. without agitation. Brain heart infusion broth was prepared with increasing amounts of the mono/di glyceride and polylysine. The concentration range for the caprylic (C8) mono/di glyceride was as from 0 to 0.18% in 10 0.02% steps, for the capric (C10) mono/di glyceride was as from 0 to 0.09% in 10 0.01% steps, for the lauric (C12)mono/di glyceride was as from 0 to 0.009% in 10 0.001% steps. Mono/di glycerides were combined with polylysine. The concentration range for the polylysine was as from 0 to 0.0675% in 10 0.0075% steps, resulting in 100 different media. The pH of the media was adjusted to 6.1-6.2 with 1 N HCl or 1 N NaOH. Media were prepared in 10 ml quantities and sterilized by filtration. 300 μl of each medium was transferred to a panel of a sterile Bioscreen® honeycomb 100 well plate. Well plates were inoculated with 5 μl of a culture that was grown overnight in brain heart infusion broth using a sterile 5 μl repeating dispenser. Growth rates were determined with a Bioscreen® that kinetically measures the development of turbidity by vertical photometry. The plates were incubated for 16-24 hours at 37° C., the optical density of the cultures was measured every 30 minutes at 420-580 nm using a wide band filter. The Bioscreen® measures at set time intervals the optical density of the cultures. […] The purpose of further data processing is to ascertain whether two […] act independently of each other or whether they stimulate each other in their inhibitory action (synergy) or cancel out each other inhibitory effect (antagonism). […] This implies that only the maximum specific growth rate (μmax) value and not the affinity (Ks) is affected. Therefore the specific growth rate in the presence of inhibitor can be written as: μ=μi.s/(Ks+s), where μi is the maximal specific growth rate in the presence of a inhibitor P. The relationship between μi and μmax and the concentration of the inhibitor P was describes using the Logistic Dose Response equation, which reads: μi/μmax=1/(1+(p/P0.5)^b) (Jungbauer, A. (2001). The logistic dose response function: a robust fitting function for transition phenomena in life sciences. J. Clinical Ligand Assay 24: 270-274). In this equation p represents the concentration of inhibitor P and p0.5 the concentration of P where p=0.5 μmax; μmax is the maximum specific growth rate that is the specific growth rate in the absence of inhibitor P, b is a dimensionless quantity, which determines the relationship between μi and p. Combining the Monod and Logistic Dose Response equation it can be written as: μ=μmax (s/Ks+s)/(1+(p/p0.5)^b). In batch culture where s is usually many times higher than Ks this equation reduces to μ=μmax/(1+(p/p0.5)^b). When comparing different organisms grown under the same conditions, or the same organism grown under different conditions, it is more meaningful to use relative growth rate, rather than absolute growth rates as standards of comparison. Relative growth rate (O) is the ratio of growth rate (μ) to maximum growth rate (μmax) i.e. O=μ/μmax. It can be seen that while μ and μmax have the dimensions of (time)^−1, their ratio O is dimensionless, i.e. a pure number. Similarly we can define the relative inhibitor concentration ε as p/p0.5. The reduced Monod and Logistic Dose Response equation can now be written as: O=1/(1+ε^b).

[2] = system: Salmonella entiritidis (ATCC 13076); assay: as above; assay type: cell-based
Experimental: as §1

[3] = system: Salmonella typhimurium (ATCC 13311); assay: as above; assay type: cell-based
Experimental: as §1

[4] = system: Salmonella Typhimurium ATCC 13311; assay: Decontamination of inoculated chicken filets, surviving counts; assay type: cell-based
Experimental: Salmonella Typhimurium ATCC 13311 and Escherichia coli O157:H7 ATCC 700728 were grown in sterile screw capped tubes containing Brain heart infusion broth for 18-24 hours at 30° C.
Chicken filets (150-200 g) were trimmed, vacuum packaged and stored at 4-7° C. Filets were subsequently sterilized by gamma-irradiation (average radiation dose: 12 kiloGray).
1 ml of an overnight culture of Salmonella Typhimurium in brain heart infusion both was diluted 1000 times with sterile 0.8% (w/v) NaCl and 0.1% (w/v) peptone. 0.5 ml of this diluted culture was transferred to one side of the filet. The inoculum was distributed by gently rubbing the entire surface of the filet. This was repeated for the other side of the filet. Inoculation was carried out at 6° C. Inoculated filets were rested for 60-120 min at 6° C. to allow attachment of the cells.
Chicken filets were briefly dipped and completely submersed in 1 l of a solution containing the appropriate formulation and then transferred to 400 ml Bagfilter® lateral filter bags (Interscience, St Nom, France) containing 5 ml of the appropriate formulation. Bags were vacuum-sealed and incubated at 12° C. for up to 7 days until further analysis. Time zero samples were plated within 30 min after dipping.
Surviving Salmonella Typhimurium on chicken filets were counted as follows: a sealed bag was opened and to this was added 2 times the net weight sterile dilution fluid ([…] NaCl and 0.1% (w/v) bacteriological peptone). Duplicate filets were homogenized for 1 min. in a Bagmixer® 400 paddle labblender (Interscience, St Nom, France). 50 μl of the homogenates or dilutions thereof were plated on duplicate Salmonella chromogenic agar plates (CM1007) with cefsulodin, novobiocin supplement (SR0194) (Oxoid, Basingstoke, United Kingdom) using an Eddyjet type 1.23 spiral plater (IUL Instruments, Barcelona, Spain). Plates were incubated for 24-48 hours at 30° C. and then counted. Salmonella numbers were expressed as log10 colony forming units per ml homogenate.
The compositions of the formulations that were studied are shown in Table 2. ε-Polylysine and mono/di glycerides were dissolved in demineralised water and sterilized for 20 min at 120° C.

[5] = system: Escherichia coli (ATCC 8739); assay: Bioscreen growth rate in brain heart infusion broth (synergy study); assay type: cell-based
Experimental: as §1

[6] = system: gram-positive and -negative bacteria; conditions: Shima et al. (November 1984); cited from earlier work
[7] = 0.090% (w/w) C10-glycerol ester alone
[8] = 0.0225% (w/w) polylysine alone, C8 part of Table 1
[9] = 0.0225% (w/w) polylysine alone, C10 part of Table 1
[10] = 0.120% (w/w) C8-glycerol ester alone

Substance: glyceryl mono/di decanoate [C10-glycerol ester]
- Observed Relative Growth Rate [1, 7]: 0.8685
- Observed Relative Growth Rate [2, 7]: 0.8960
- Observed Relative Growth Rate [3, 7]: 0.4613
- Salmonella Typhimurium on chicken filets ([4]; 0.05% (w/v) alone, 12° C., 0 days): 3.72 log10 colony forming units (CFU)/ml
- Salmonella Typhimurium on chicken filets ([4]; 0.05% (w/v) alone, 12° C., 1 day): 3.98 log10 colony forming units (CFU)/ml
- Salmonella Typhimurium on chicken filets ([4]; 0.05% (w/v) alone, 12° C., 2 days): 4.32 log10 colony forming units (CFU)/ml
- Salmonella Typhimurium on chicken filets ([4]; 0.05% (w/v) alone, 12° C., 5 days): 6.0 log10 colony forming units (CFU)/ml
- Salmonella Typhimurium on chicken filets ([4]; 0.05% (w/v) alone, 12° C., 6 days): 7.62 log10 colony forming units (CFU)/ml
- Salmonella Typhimurium on chicken filets ([4]; 0.05% (w/v) alone, 12° C., 7 days): 7.85 log10 colony forming units (CFU)/ml

Substance: ε-Polylysine
- Observed Relative Growth Rate [5, 8]: 0.7570
- Observed Relative Growth Rate [1, 8]: 0.8315
- Observed Relative Growth Rate [1, 9]: 0.5850
- Observed Relative Growth Rate [2, 8]: 0.9945
- Observed Relative Growth Rate [2, 9]: 0.9600
- Observed Relative Growth Rate [3, 8]: 0.9653
- Observed Relative Growth Rate [3, 9]: 0.9910
- Salmonella Typhimurium on chicken filets ([4]; 0.1% (w/v) alone, 12° C., 0 days): 3.04 log10 colony forming units (CFU)/ml
- Salmonella Typhimurium on chicken filets ([4]; 0.1% (w/v) alone, 12° C., 1 day): 2.04 log10 colony forming units (CFU)/ml
- Salmonella Typhimurium on chicken filets ([4]; 0.1% (w/v) alone, 12° C., 2 days): 2.15 log10 colony forming units (CFU)/ml
- Salmonella Typhimurium on chicken filets ([4]; 0.1% (w/v) alone, 12° C., 5 days): 4.04 log10 colony forming units (CFU)/ml
- Salmonella Typhimurium on chicken filets ([4]; 0.1% (w/v) alone, 12° C., 6 days): 4.26 log10 colony forming units (CFU)/ml
- Salmonella Typhimurium on chicken filets ([4]; 0.1% (w/v) alone, 12° C., 7 days): 5.35 log10 colony forming units (CFU)/ml
- killing or growth suppressing effect (in words) ([4]; individual components on chicken filets, 12° C.): reduced the cell numbers
- reduction in numbers ([4]; single addition, after one day of incubation): 2 log10
- concentrations effectively used against bacteria [6]: 1˜8 microgram per ml

Substance: glyceryl mono/di octanoate [C8-glycerol ester]
- Observed Relative Growth Rate ([5]; 0.120% (w/w) C8-glycerol ester alone, broth pH 6.1-6.2, 37° C.): 1.0845
- Observed Relative Growth Rate [1, 10]: 0.9410
- Observed Relative Growth Rate [2, 10]: 0.5220
- Observed Relative Growth Rate [3, 10]: 0.4035
- Salmonella Typhimurium on chicken filets ([4]; 0.2% (w/v) alone, 12° C., 0 days): 3.82 log10 colony forming units (CFU)/ml
- Salmonella Typhimurium on chicken filets ([4]; 0.2% (w/v) alone, 12° C., 1 day): 3.81 log10 colony forming units (CFU)/ml
- Salmonella Typhimurium on chicken filets ([4]; 0.2% (w/v) alone, 12° C., 2 days): 4.03 log10 colony forming units (CFU)/ml
- Salmonella Typhimurium on chicken filets ([4]; 0.2% (w/v) alone, 12° C., 5 days): 6.41 log10 colony forming units (CFU)/ml
- Salmonella Typhimurium on chicken filets ([4]; 0.2% (w/v) alone, 12° C., 6 days): 7.48 log10 colony forming units (CFU)/ml
- Salmonella Typhimurium on chicken filets ([4]; 0.2% (w/v) alone, 12° C., 7 days): 7.39 log10 colony forming units (CFU)/ml

From patent US20090082443A1, “Use of fatty acid esters of glycerol combined with polylysine against gram-negative bacteria” (PURAC BIOCHEM B.V., priority 2007, published 2009)
